± gives the standard deviation of the averaged measurements or the uncertainty stated by the source.
Key:
[1] = test system: Caenorhabditis elegans N2; assay: mean adult lifespan of treated cohort (days); higher = longer lifespan; details: exposure: chronic from day 1 of adulthood, single dose per compound (concentration not stated in sheet)
Method: (§1)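 Caenorhabditis lifespan assay (CITP). Synchronised hermaphrodites were moved on the first day of adulthood onto 35 mm NGM plates with live E. coli OP50-1 and 51 uM FUdR, with the compound spread on the plate. Worms were kept at 20 C and scored for survival.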

[2] = test system: Caenorhabditis elegans MY16; assay: as above; details: exposure: chronic from day 1 of adulthood, single dose per compound (concentration not stated in sheet)
Method: as §1

[3] = test system: Caenorhabditis briggsae AF16; assay: as above; details: exposure: chronic from day 1 of adulthood, single dose per compound (concentration not stated in sheet)
Method: as §1

[4] = test system: Caenorhabditis elegans JU775; assay: as above; details: exposure: chronic from day 1 of adulthood, single dose per compound (concentration not stated in sheet)
Method: as §1

[5] = test system: Caenorhabditis briggsae HK104; assay: as above; details: exposure: chronic from day 1 of adulthood, single dose per compound (concentration not stated in sheet)
Method: as §1

[6] = test system: Caenorhabditis briggsae JU1348; assay: as above; details: exposure: chronic from day 1 of adulthood, single dose per compound (concentration not stated in sheet)
Method: as §1

[7] = test system: Caenorhabditis briggsae AF16; assay: mean adult lifespan of treated plate (days); higher = longer lifespan; details: exposure: chronic from day 1 of adulthood
Method: (§2)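 Dose-response lifespan assays in three C. briggsae strains (AF16, HK104, JU1348), run per plate (35-40 animals) on NGM with live OP50-1 and 51 uM FUdR at 20 C. Compound was added to the plate surface and worms were exposed from the first day of adulthood.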

[8] = test system: Caenorhabditis briggsae HK104; assay: as above; details: exposure: chronic from day 1 of adulthood
Method: as §2

[9] = test system: Caenorhabditis briggsae JU1348; assay: as above; details: exposure: chronic from day 1 of adulthood
Method: as §2

[10] = test system: Caenorhabditis elegans N2; assay: Kaplan-Meier median lifespan of treated cohort (days); higher = longer lifespan; details: exposure: chronic from day 1 of adulthood, single dose per compound (concentration not stated in sheet)
Method: as §1

[11] = test system: Caenorhabditis elegans MY16; assay: as above; details: exposure: chronic from day 1 of adulthood, single dose per compound (concentration not stated in sheet)
Method: as §1

[12] = test system: Caenorhabditis briggsae AF16; assay: as above; details: exposure: chronic from day 1 of adulthood, single dose per compound (concentration not stated in sheet)
Method: as §1

[13] = test system: Caenorhabditis elegans JU775; assay: as above; details: exposure: chronic from day 1 of adulthood, single dose per compound (concentration not stated in sheet)
Method: as §1

[14] = test system: Caenorhabditis briggsae HK104; assay: as above; details: exposure: chronic from day 1 of adulthood, single dose per compound (concentration not stated in sheet)
Method: as §1

[15] = test system: Caenorhabditis briggsae JU1348; assay: as above; details: exposure: chronic from day 1 of adulthood, single dose per compound (concentration not stated in sheet)
Method: as §1

[16] = test system: Caenorhabditis briggsae AF16; assay: Kaplan-Meier median lifespan of treated plate (days); higher = longer lifespan; details: exposure: chronic from day 1 of adulthood
Method: as §2

[17] = test system: Caenorhabditis briggsae HK104; assay: as above; details: exposure: chronic from day 1 of adulthood
Method: as §2

[18] = test system: Caenorhabditis briggsae JU1348; assay: as above; details: exposure: chronic from day 1 of adulthood
Method: as §2

Structure (SMILES): CCCOC(=O)c1cc(O)c(O)c(O)c1 [propyl gallate]
- mean adult lifespan of treated cohort [1]: 19 ± 0.4
- mean adult lifespan of treated cohort [2]: 18.3 ± 0.57
- mean adult lifespan of treated cohort [3]: 24.8 ± 0.89
- mean adult lifespan of treated cohort [4]: 21.5 ± 0.74
- mean adult lifespan of treated cohort [5]: 33.4 ± 1
- mean adult lifespan of treated cohort [6]: 24.5 ± 0.75
- mean adult lifespan of treated plate ([7]; 20 µM): 26.6 ± 1.5
- mean adult lifespan of treated plate ([7]; 100 µM): 25 ± 1.5
- mean adult lifespan of treated plate ([7]; 200 µM): 27.2 ± 1.1
- mean adult lifespan of treated plate ([7]; 400 µM): 25.2 ± 1.4
- mean adult lifespan of treated plate ([7]; 4000 µM): 18 ± 1.1
- mean adult lifespan of treated plate ([8]; 20 µM): 33.5 ± 1.6
- mean adult lifespan of treated plate ([8]; 100 µM): 35 ± 1.6
- mean adult lifespan of treated plate ([8]; 200 µM): 33.9 ± 1.3
- mean adult lifespan of treated plate ([8]; 400 µM): 35.1 ± 1.4
- mean adult lifespan of treated plate ([8]; 4000 µM): 21.9 ± 1.4
- mean adult lifespan of treated plate ([9]; 20 µM): 23.8 ± 1.1
- mean adult lifespan of treated plate ([9]; 100 µM): 26 ± 1.4
- mean adult lifespan of treated plate ([9]; 200 µM): 22.8 ± 1.1
- mean adult lifespan of treated plate ([9]; 400 µM): 24.7 ± 1.2
- mean adult lifespan of treated plate ([9]; 4000 µM): 19.5 ± 0.94
- Kaplan-Meier median lifespan [10]: 18.3 ± 0.82
- Kaplan-Meier median lifespan [11]: 18.3 ± 3.9
- Kaplan-Meier median lifespan [12]: 24.7 ± 2
- Kaplan-Meier median lifespan [13]: 22.3 ± 2
- Kaplan-Meier median lifespan [14]: 35.5 ± 3
- Kaplan-Meier median lifespan [15]: 24.7 ± 4
- Kaplan-Meier median lifespan ([16]; 20 µM): 26.4 ± 2.5
- Kaplan-Meier median lifespan ([16]; 100 µM): 26.6 ± 2.9
- Kaplan-Meier median lifespan ([16]; 200 µM): 28.3 ± 0.58
- Kaplan-Meier median lifespan ([16]; 400 µM): 26.6 ± 2.4
- Kaplan-Meier median lifespan ([16]; 4000 µM): 17.6 ± 4.5
- Kaplan-Meier median lifespan ([17]; 20 µM): 35.4 ± 5.3
- Kaplan-Meier median lifespan ([17]; 100 µM): 36.8 ± 3.5
- Kaplan-Meier median lifespan ([17]; 200 µM): 35
- Kaplan-Meier median lifespan ([17]; 400 µM): 35.5 ± 3.6
- Kaplan-Meier median lifespan ([17]; 4000 µM): 22.2 ± 6.4
- Kaplan-Meier median lifespan ([18]; 20 µM): 24.6 ± 4.2
- Kaplan-Meier median lifespan ([18]; 100 µM): 27.3 ± 4.3
- Kaplan-Meier median lifespan ([18]; 200 µM): 21
- Kaplan-Meier median lifespan ([18]; 400 µM): 24.1 ± 4.8
- Kaplan-Meier median lifespan ([18]; 4000 µM): 19.4 ± 2.1

Structure (SMILES): Oc1ccc(/C=C/c2cc(O)cc(O)c2)cc1 [resveratrol]
- mean adult lifespan of treated cohort [1]: 19.2 ± 0.46
- mean adult lifespan of treated cohort [2]: 18.3 ± 0.59
- mean adult lifespan of treated cohort [3]: 24.6 ± 0.91
- mean adult lifespan of treated cohort [4]: 22.9 ± 0.69
- mean adult lifespan of treated cohort [5]: 33.5 ± 1
- mean adult lifespan of treated cohort [6]: 25.5 ± 0.79
- mean adult lifespan of treated plate ([7]; 10 µM): 26.1 ± 1.4
- mean adult lifespan of treated plate ([7]; 50 µM): 26.9 ± 1.2
- mean adult lifespan of treated plate ([7]; 200 µM): 26.9 ± 1.6
- mean adult lifespan of treated plate ([7]; 1000 µM): 27.6 ± 1.3
- mean adult lifespan of treated plate ([8]; 10 µM): 35.9 ± 1.3
- mean adult lifespan of treated plate ([8]; 50 µM): 33 ± 1.3
- mean adult lifespan of treated plate ([8]; 200 µM): 35.5 ± 1.5
- mean adult lifespan of treated plate ([8]; 1000 µM): 34.7 ± 1.3
- mean adult lifespan of treated plate ([9]; 10 µM): 25.9 ± 1.5
- mean adult lifespan of treated plate ([9]; 50 µM): 25.7 ± 1.1
- mean adult lifespan of treated plate ([9]; 200 µM): 22.9 ± 1.1
- mean adult lifespan of treated plate ([9]; 1000 µM): 23.6 ± 1
- Kaplan-Meier median lifespan [10]: 19.2 ± 1.2
- Kaplan-Meier median lifespan [11]: 18.3 ± 1.5
- Kaplan-Meier median lifespan [12]: 24.2 ± 1.5
- Kaplan-Meier median lifespan [13]: 24.2 ± 1.7
- Kaplan-Meier median lifespan [14]: 35.8 ± 3.4
- Kaplan-Meier median lifespan [15]: 25.5 ± 1.6
- Kaplan-Meier median lifespan ([16]; 10 µM): 26.1 ± 1.4
- Kaplan-Meier median lifespan ([16]; 50 µM): 27.8 ± 2.7
- Kaplan-Meier median lifespan ([16]; 200 µM): 26.3 ± 1.8
- Kaplan-Meier median lifespan ([16]; 1000 µM): 28.1 ± 2.2
- Kaplan-Meier median lifespan ([17]; 10 µM): 36.8 ± 3.5
- Kaplan-Meier median lifespan ([17]; 50 µM): 36.2 ± 3.3
- Kaplan-Meier median lifespan ([17]; 200 µM): 36.9 ± 3
- Kaplan-Meier median lifespan ([17]; 1000 µM): 35.6 ± 3.6
- Kaplan-Meier median lifespan ([18]; 10 µM): 25.7 ± 4.7
- Kaplan-Meier median lifespan ([18]; 50 µM): 25.7 ± 4.7
- Kaplan-Meier median lifespan ([18]; 200 µM): 23.2 ± 3.4
- Kaplan-Meier median lifespan ([18]; 1000 µM): 22.6 ± 2.6

From the supplement of paper PMC5321775
